From ChEMBL document CHEMBL1148200, “Kulokekahilide-2, a cytotoxic depsipeptide from a cephalaspidean mollusk Philinopsis speciosa” (J Nat Prod, 2004)

Columns and labels:
P388 = assay: Cytotoxicity against mouse P388 cells; type: functional, cell-based
SK-OV-3 = assay: Cytotoxicity against human SKOV3 cells; type: functional, cell-based
MDA-MB-435 = assay: Cytotoxicity against human MDA-MB-435 cells; type: functional, cell-based
A10 = assay: Cytotoxicity against rat A10 cells; type: cell-based

C/C=C(\C)[C@H]1OC(=O)[C@H](C)NC(=O)[C@H]([C@@H](C)CC)NC(=O)CN(C)C(=O)[C@H](Cc2ccccc2)N(C)C(=O)[C@@H](C)NC(=O)[C@@H](CC(C)C)OC(=O)/C(C)=C/C[C@H](O)[C@@H]1C
IC50 (P388): 4.2 nM | IC50 (SK-OV-3): 7.5 nM | IC50 (MDA-MB-435): 14.6 nM | IC50 (A10): 59.1 nM
